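The compound was tested at five concentrations on cells cultured in 96-well plates, with a 48-hour exposure period. GI50 is the concentration that inhibits growth by half. At the TGI there is no net growth.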 Where only a bound is given, the exact number is not on record here.

Drawing on PubChem BioAssay (NCI), this text covers TGI and GI50 for 9 compounds.

Among the test systems are COLO 205 colon; OVCAR-5 ovarian; A498 renal; SF-268 CNS; CAKI-1 renal; SK-MEL-2 melanoma; HOP-92 NSCLC; A549 NSCLC; SN12C renal; HCT-15 colon.
Common to all, as to test: NCI-60 cell line screen, 48 h

With `O=C1C(OC(=O)c2ccccc2)=C(c2ccc(O)cc2)C(=O)C(OC(=O)c2ccccc2)=C1c1ccc(O)cc1`, the TGI with COLO 205 colon, in the test with OVCAR-5 ovarian, with A498 renal, with SF-268 CNS, with CAKI-1 renal and with SK-MEL-2 melanoma was above 100 µM each time. For the same compound, the TGI in the test on HOP-92 NSCLC, in the test on A549 NSCLC, in the test on SN12C renal and with HCT-15 colon was above 100 µM throughout.
Turning to `C=C(CN1CCN(c2ccc(F)c(Cl)c2)CC1)c1ccc(C(=O)Nc2ccccc2N)cc1`, the GI50 in the test with COLO 205 colon is above 100 µM; in the test on OVCAR-5 ovarian it was 15.1 µM; with A498 renal, 9.67 µM; with SF-268 CNS, 4.35 µM; in the test with CAKI-1 renal, 4.12 µM; with SK-MEL-2 melanoma it was 6.12 µM. For the same compound, the GI50 in the test on HOP-92 NSCLC is 2.15 µM; with A549 NSCLC it was 3.81 µM; in the test on SN12C renal it was 5.1 µM; with HCT-15 colon it was 5.38 µM. Besides, the TGI in the test with COLO 205 colon was above 100 µM; in the test with OVCAR-5 ovarian it was above 100 µM; in the test with A498 renal it was 44.1 µM; in the test on SF-268 CNS it was above 100 µM; with CAKI-1 renal it was 77.8 µM; in the test on SK-MEL-2 melanoma, 64 µM. In addition, the TGI was 11.6 µM with HOP-92 NSCLC, 24.5 µM in the test on A549 NSCLC, 59.5 µM with SN12C renal and above 100 µM with HCT-15 colon.
Consider `CC1=C(SCCC(=O)OC(C[Se]C2=C(C)C(=O)c3ccccc3C2=O)C(=O)NC(C)(C)C)C(=O)c2ccccc2C1=O` (stereo not given), for which the GI50 with COLO 205 colon is 1.66 µM; in the test on OVCAR-5 ovarian, 1.69 µM; with A498 renal, 1.55 µM; in the test with SF-268 CNS it was 1.55 µM; in the test on CAKI-1 renal it was 1.65 µM; in the test on SK-MEL-2 melanoma, 2.04 µM. Further, the GI50 in the test on HOP-92 NSCLC was 0.793 µM; in the test on A549 NSCLC it was 1.11 µM; with SN12C renal it was 1.47 µM; in the test with HCT-15 colon, 1.47 µM. The TGI was 3.14 µM with COLO 205 colon; 3.08 µM with OVCAR-5 ovarian; 2.97 µM in the test with A498 renal; 2.88 µM with SF-268 CNS; 3.36 µM in the test on CAKI-1 renal; 3.65 µM with SK-MEL-2 melanoma. Moreover, the TGI is 2.13 µM with HOP-92 NSCLC, 4.59 µM with A549 NSCLC, 2.99 µM with SN12C renal and 3.11 µM in the test on HCT-15 colon.
With `COC(=O)C#CC(N)=O`, the TGI is above 100 µM in the test with COLO 205 colon; above 100 µM in the test with OVCAR-5 ovarian; above 100 µM with A498 renal; above 100 µM in the test on SF-268 CNS; above 67.1 µM in the test on CAKI-1 renal; above 100 µM in the test on SK-MEL-2 melanoma. Also, the TGI in the test with HOP-92 NSCLC is 40.6 µM; in the test with A549 NSCLC, above 100 µM; with SN12C renal it was above 100 µM; in the test with HCT-15 colon it was above 100 µM.
As to `CC1(C2CCC3(C)C(C2)C3Sc2ccccc2)OCCO1` (stereo not given), the TGI in the test with COLO 205 colon is 35.8 µM; in the test on OVCAR-5 ovarian, 49.9 µM; in the test on A498 renal, 36.4 µM; in the test on SF-268 CNS, above 100 µM; with CAKI-1 renal, 51.4 µM; in the test on SK-MEL-2 melanoma it was 34.3 µM. The TGI in the test on HOP-92 NSCLC was 56 µM; in the test with A549 NSCLC it was 68 µM; in the test with SN12C renal, 46.8 µM; in the test on HCT-15 colon, above 100 µM.
Regarding `CN(C)CCOc1ccc2c(c1)C(=O)/C(=C\c1ncc([N+](=O)[O-])n1C)C2`, the GI50 with COLO 205 colon is 0.25 µM; with OVCAR-5 ovarian it was 2.02 µM; in the test with A498 renal, 0.307 µM; in the test on SF-268 CNS, 0.489 µM; in the test on CAKI-1 renal, 0.386 µM; in the test with SK-MEL-2 melanoma, 0.631 µM. The GI50 was 0.701 µM in the test with HOP-92 NSCLC, 0.37 µM in the test on A549 NSCLC, 1.12 µM in the test on SN12C renal and 0.311 µM with HCT-15 colon. The TGI is 0.628 µM with COLO 205 colon; 5.7 µM in the test on OVCAR-5 ovarian; 0.931 µM with A498 renal; 3.11 µM with SF-268 CNS; 2.4 µM in the test with CAKI-1 renal; 1.93 µM with SK-MEL-2 melanoma. Also, the TGI in the test with HOP-92 NSCLC amounted to 3.25 µM; in the test with A549 NSCLC, 5.14 µM; in the test on SN12C renal it was 5.21 µM; in the test with HCT-15 colon, 7.39 µM.
For `CC(CC(=O)Nc1ccc(NC(=O)CC(C)N=NC(N)=O)cc1)N=NC(N)=O` (stereo not given), the TGI in the test with COLO 205 colon, in the test on OVCAR-5 ovarian, in the test with A498 renal, in the test with SF-268 CNS, in the test on CAKI-1 renal and in the test on SK-MEL-2 melanoma was above 100 µM each time. Moreover, the TGI was above 100 µM with HOP-92 NSCLC, above 100 µM in the test with A549 NSCLC, above 100 µM with SN12C renal and 33.6 µM in the test on HCT-15 colon.
On to `CNC(=O)c1cc(-c2ccc(F)cc2)cc(-c2ccc(S(=O)(=O)N3CCCC3)cc2)c1N`, for which the GI50 with COLO 205 colon is 23.5 µM; in the test with OVCAR-5 ovarian, above 25 µM; in the test with A498 renal, 5.25 µM; in the test on SF-268 CNS it was above 25 µM; in the test on CAKI-1 renal it was 12.6 µM; in the test with SK-MEL-2 melanoma, above 25 µM. In addition, the GI50 is 4.9 µM in the test on HOP-92 NSCLC, 11.9 µM in the test with A549 NSCLC, above 23.8 µM in the test on SN12C renal and 9.68 µM with HCT-15 colon. The TGI with COLO 205 colon, in the test on OVCAR-5 ovarian, in the test on A498 renal, with SF-268 CNS, in the test with CAKI-1 renal and in the test on SK-MEL-2 melanoma was above 25 µM each time. The TGI in the test on HOP-92 NSCLC, with A549 NSCLC, in the test with SN12C renal and in the test with HCT-15 colon was above 25 µM each time.
As to `Cn1cc(-c2csc(-c3cn(C(=O)OC(C)(C)C)c4ccccc34)n2)c2cccnc21`, the GI50 was 2.97 µM with COLO 205 colon; 14.6 µM in the test with OVCAR-5 ovarian; 3.86 µM in the test with A498 renal; 8.01 µM with SF-268 CNS; 3.06 µM in the test with CAKI-1 renal; 13.8 µM in the test with SK-MEL-2 melanoma. Also, the GI50 with HOP-92 NSCLC is 3.81 µM; in the test on A549 NSCLC, 6.04 µM; in the test on SN12C renal, 6.45 µM; in the test with HCT-15 colon, 6.35 µM. In addition, the TGI turned out to be 14.6 µM in the test on COLO 205 colon; 29.9 µM with OVCAR-5 ovarian; 14.4 µM in the test on A498 renal; 35.3 µM in the test with SF-268 CNS; 24.8 µM in the test with CAKI-1 renal; 36.3 µM in the test on SK-MEL-2 melanoma. The TGI in the test with HOP-92 NSCLC came out at 19.9 µM; with A549 NSCLC, 31.2 µM; in the test with SN12C renal, 21.6 µM; in the test on HCT-15 colon, 37.7 µM.
